Test [1] deals with T1, human progesterone receptor A (Homo sapiens, UniProt P06401).
T1 construct: expressed in transfected cells; host or cells: SK-N-MC human neuroblastoma cells, stably transfected with pRChPR-A-neo and pMMTV-LUC
T1 sequence (P06401 1-769 isoform P06401-2): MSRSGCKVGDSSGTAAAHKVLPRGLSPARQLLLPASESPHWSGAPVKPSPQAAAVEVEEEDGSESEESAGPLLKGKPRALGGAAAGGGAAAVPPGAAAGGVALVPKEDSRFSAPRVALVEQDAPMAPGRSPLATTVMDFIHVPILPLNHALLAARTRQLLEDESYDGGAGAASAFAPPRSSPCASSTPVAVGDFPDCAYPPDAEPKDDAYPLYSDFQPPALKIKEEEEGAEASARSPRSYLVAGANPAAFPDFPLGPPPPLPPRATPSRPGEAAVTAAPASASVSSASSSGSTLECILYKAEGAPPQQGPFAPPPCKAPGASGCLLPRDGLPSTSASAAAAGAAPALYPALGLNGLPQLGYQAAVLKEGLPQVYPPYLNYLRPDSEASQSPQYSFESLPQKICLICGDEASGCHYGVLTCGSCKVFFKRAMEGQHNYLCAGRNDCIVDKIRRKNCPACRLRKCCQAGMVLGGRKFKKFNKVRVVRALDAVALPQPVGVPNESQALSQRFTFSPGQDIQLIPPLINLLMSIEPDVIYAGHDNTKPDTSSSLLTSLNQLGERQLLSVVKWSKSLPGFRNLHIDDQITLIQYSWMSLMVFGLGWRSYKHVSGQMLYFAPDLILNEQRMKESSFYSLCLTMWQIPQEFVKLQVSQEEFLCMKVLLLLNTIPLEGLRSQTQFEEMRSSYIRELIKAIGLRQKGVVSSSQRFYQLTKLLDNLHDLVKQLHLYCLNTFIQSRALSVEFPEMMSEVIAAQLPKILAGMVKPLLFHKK
Kind of test: Progesterone receptor-antagonistic action in stably transfected SK-N-MC cells, PR-A, MMTV-LUC reporter. The test is classed as cell-based. Particulars: read-out: IC50 PR-A. The protocol:
(§1) Determination of Progesterone Receptor-Antagonistic Action in Stable Transfectants of Human Neuroblastoma Cells (SK-N-MC Cells) with the Human Progesterone a or Progesterone B Receptor and an MN-LUC Reporter Construct
(§2) SK-N-MC cells (human neuroblastoma cells) which have been stably transfected with plasmids expressing the human progesterone receptor B (pRChPR-B-neo) or the human progesterone receptor A (pRChPR-A-neo) and a reporter construct (pMMTV-LUC) were incubated for 24 hours either in the absence (negative control) or in the presence of ascending amounts of the particular test compound (0.01 nmol/l, 0.1 nmol/l, 1 nmol/l, 10 nmol/l, 100 nmol/l and […]), in order to determine the agonistic efficacy. As a positive control of the reporter gene induction, the cells were treated with the synthetic gestagen promegestone (0.01 nmol/l, 0.1 nmol/l, 1 nmol/l, 10 nmol/l, 100 nmol/l and […]). To determine the antagonistic activity, the cells were treated with 0.1 nmol/l promegestone and additionally with ascending amounts of the particular test compound (0.01 nmol/l, 0.1 nmol/l, 1 nmol/l, 10 nmol/l, 100 nmol/l and […]). The activity of the reporter gene LUC (LUC=luciferase) was determined in the cell lysates and measured as RLU (relative light units). All measurements are reported as % efficacy and as EC50 and IC50 concentrations.

Test [2] concerns the target T2, human progesterone receptor B (Homo sapiens, UniProt P06401).
T2 construct: expressed in transfected cells; host or cells: SK-N-MC human neuroblastoma cells, stably transfected with pRChPR-B-neo and pMMTV-LUC
T2 sequence (P06401 1-933): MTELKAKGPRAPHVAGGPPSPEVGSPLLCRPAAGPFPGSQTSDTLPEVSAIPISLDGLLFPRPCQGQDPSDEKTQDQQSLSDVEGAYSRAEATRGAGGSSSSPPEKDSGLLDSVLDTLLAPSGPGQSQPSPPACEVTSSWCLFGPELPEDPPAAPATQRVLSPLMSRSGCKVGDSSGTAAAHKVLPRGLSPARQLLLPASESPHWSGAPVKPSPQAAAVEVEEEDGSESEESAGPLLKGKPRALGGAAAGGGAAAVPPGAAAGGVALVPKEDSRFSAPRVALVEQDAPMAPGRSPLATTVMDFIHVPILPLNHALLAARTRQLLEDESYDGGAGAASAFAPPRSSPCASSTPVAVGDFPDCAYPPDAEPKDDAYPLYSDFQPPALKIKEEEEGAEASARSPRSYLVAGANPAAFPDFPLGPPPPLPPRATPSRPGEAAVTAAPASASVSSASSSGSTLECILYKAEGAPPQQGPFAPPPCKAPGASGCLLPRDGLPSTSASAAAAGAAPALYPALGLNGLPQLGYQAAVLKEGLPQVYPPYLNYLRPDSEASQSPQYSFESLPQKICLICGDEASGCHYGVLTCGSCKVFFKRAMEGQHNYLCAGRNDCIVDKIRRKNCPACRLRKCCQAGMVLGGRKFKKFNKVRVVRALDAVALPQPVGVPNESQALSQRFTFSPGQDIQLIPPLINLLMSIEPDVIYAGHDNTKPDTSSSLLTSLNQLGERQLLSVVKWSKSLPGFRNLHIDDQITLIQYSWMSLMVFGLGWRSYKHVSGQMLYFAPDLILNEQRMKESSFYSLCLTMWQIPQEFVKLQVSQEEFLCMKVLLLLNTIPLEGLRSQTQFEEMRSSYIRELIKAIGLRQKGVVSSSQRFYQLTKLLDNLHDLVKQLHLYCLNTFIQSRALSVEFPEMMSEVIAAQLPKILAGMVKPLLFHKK
The test is described as follows: Progesterone receptor-antagonistic action in stably transfected SK-N-MC cells, PR-B, MMTV-LUC reporter. As to conditions: read-out: IC50 PR-B. Type of test: cell-based. The protocol: as §1, §2

Take `Cc1ccc(NC(=O)NCC#Cc2ccc([C@H]3C[C@@]4(C)[C@@H](CC[C@@]4(O)C(F)(F)C(F)(F)F)[C@@H]4CCC5=CC(=O)CCC5=C43)cc2)cc1` [Example 38, 1-{3-[4-((8S,11R,13S,14S,17S)-17-hydroxy-13-methyl-3-oxo-17-pentafluoroethyl-2,3,6,7,8,11,12,13,14,15,16,17-dodecahydro-1H-cyclopenta[a]phenanthren-11-yl)phenyl]prop-2-ynyl}-3-(4-methylphenyl)urea]: the half-inhibitory concentration (IC50) in test [1] amounted to 0.2 nM; in test [2], 0.3 nM.

Take `C[C@]12C[C@H](c3ccc(C#CCNC(=O)NCc4ccccc4)cc3)C3=C4CCC(=O)C=C4CCC3C1CC[C@@]2(O)C(F)(F)C(F)(F)F` (stereo partly drawn) [Example 39, 1-benzyl-3-{3-[4-((8S,11R,13S,14S,17S)-17-hydroxy-13-methyl-3-oxo-17-pentafluoroethyl-2,3,6,7,8,11,12,13,14,15,16,17-dodecahydro-1H-cyclopenta[a]phenanthren-1′-yl)phenyl]prop-2-ynyl}urea]: the IC50 in test [1] and in test [2] was 0.1 nM each time.

Turning to `CC(C)(C)NC(=O)NCC#Cc1ccc([C@H]2C[C@@]3(C)[C@@H](CC[C@@]3(O)C(F)(F)C(F)(F)F)[C@@H]3CCC4=CC(=O)CCC4=C32)cc1` [Example 40, 1-{3-[4-((8S,11R,13S,14S,17S)-17-hydroxy-13-methyl-3-oxo-17-pentafluoroethyl-2,3,6,7,8,11,12,13,14,15,16,17-dodecahydro-1H-cyclopenta[a]phenanthren-11-yl)phenyl]prop-2-ynyl}-3-tert-butylurea], the values for the IC50 in test [1] and in test [2] were 0.1 nM and 0.3 nM, respectively.

With `C=CCNC(=O)NCC#Cc1ccc([C@H]2C[C@@]3(C)[C@@H](CC[C@@]3(O)C(F)(F)C(F)(F)F)[C@@H]3CCC4=CC(=O)CCC4=C32)cc1` [Example 41, 1-allyl-3-{3-[4-((8S,11R,13S,14S,17S)-17-hydroxy-13-methyl-3-oxo-17-pentafluoroethyl-2,3,6,7,8,11,12,13,14,15,16,17-dodecahydro-1H-cyclopenta[a]phenanthren-1′-yl)phenyl]prop-2-ynyl}urea], the IC50 in test [1] and in test [2] was 0.1 nM in each case.

As for `CCOC(=O)CNC(=O)NCC#Cc1ccc([C@H]2C[C@@]3(C)C(CC[C@@]3(O)C(F)(F)C(F)(F)F)C3CCC4=CC(=O)CCC4=C32)cc1` (stereo partly drawn) [Example 42, (3-{3-[4-((8S,11R,13S,14S,17S)-17-hydroxy-13-methyl-3-oxo-17-pentafluoroethyl-2,3,6,7,8,11,12,13,14,15,16,17-dodecahydro-1H-cyclopenta[a]phenanthren-1′-yl)phenyl]prop-2-ynyl}ureido)acetic acid ethyl ester], the IC50 in test [1] turned out to be 0.7 nM; in test [2] it was 0.8 nM.

With `C[C@]12C[C@H](c3ccc(C#CCNC(=O)Nc4ccc(N5CCCCC5)cc4)cc3)C3=C4CCC(=O)C=C4CC[C@H]3[C@@H]1CC[C@@]2(O)C(F)(F)C(F)(F)F` [Example 43, 1-{3-[4-((8S,11R,13S,14S,17S)-17-hydroxy-13-methyl-3-oxo-17-pentafluoroethyl-2,3,6,7,8,11,12,13,14,15,16,17-dodecahydro-1H-cyclopenta[a]phenanthren-11-yl)phenyl]prop-2-ynyl}-3-(4-piperidin-1-ylphenyl)urea], the IC50 in test [1] amounted to 0.8 nM; in test [2] it was 0.9 nM.

For the compound `C=CCNC(=O)OCC#Cc1ccc([C@H]2C[C@@]3(C)C(CC[C@@]3(O)C(F)(F)C(F)(F)F)C3CCC4=CC(=O)CCC4=C32)cc1` (stereo partly drawn) [Example 44, allylcarbamic acid 3-[4-((8S,11R,13S,14S,17S)-17-hydroxy-13-methyl-3-oxo-17-pentafluoroethyl-2,3,6,7,8,11,12,13,14,15,16,17-dodecahydro-1H-cyclopenta[a]phenanthren-1′-yl)phenyl]prop-2-ynyl ester], the IC50 in test [1] and in test [2] was 0.01 nM throughout.

In the case of `CCNC(=O)OCC#Cc1ccc([C@H]2C[C@@]3(C)C(CC[C@@]3(O)C(F)(F)C(F)(F)F)C3CCC4=CC(=O)CCC4=C32)cc1` (stereo partly drawn) [Example 45, ethylcarbamic acid 3-[4-((8S,11R,13S,14S,17S)-17-hydroxy-13-methyl-3-oxo-17-pentafluoroethyl-2,3,6,7,8,11,12,13,14,15,16,17-dodecahydro-1H-cyclopenta[a]phenanthren-1′-yl)phenyl]prop-2-ynyl ester], the IC50 in test [1] and in test [2] was 0.01 nM in each case.

As for `C[C@]12C[C@H](c3ccc(C#CCOC(=O)Nc4ccccc4)cc3)C3=C4CCC(=O)C=C4CCC3C1CC[C@@]2(O)C(F)(F)C(F)(F)F` (stereo partly drawn) [Example 46, phenylcarbamic acid 3-[4-((8S,11R,13S,14S,17S)-17-hydroxy-13-methyl-3-oxo-17-pentafluoroethyl-2,3,6,7,8,11,12,13,14,15,16,17-dodecahydro-1H-cyclopenta[a]phenanthren-1′-yl)phenyl]prop-2-ynyl ester], the IC50 in test [1] and in test [2] was 0.01 nM in each case.

On to `Cc1ccc(NC(=O)OCC#Cc2ccc([C@H]3C[C@@]4(C)C(CC[C@@]4(O)C(F)(F)C(F)(F)F)C4CCC5=CC(=O)CCC5=C43)cc2)cc1` (stereo partly drawn) [Example 47, 4-methylphenylcarbamic acid 3-[4-((8S,11R,13S,14S,17S)-17-hydroxy-13-methyl-3-oxo-17-pentafluoroethyl-2,3,6,7,8,11,12,13,14,15,16,17-dodecahydro-1H-cyclopenta[a]phenanthren-1′-yl)phenyl]prop-2-ynyl ester], for which the IC50 in test [1] and in test [2] was 0.01 nM in each case.

With `C[C@]12C[C@H](c3ccc(C#CCOC(=O)Nc4ccc(F)cc4)cc3)C3=C4CCC(=O)C=C4CCC3C1CC[C@@]2(O)C(F)(F)C(F)(F)F` (stereo partly drawn) [Example 48, 4-fluorophenylcarbamic acid 3-[4-((8S,11R,13S,14S,17S)-17-hydroxy-13-methyl-3-oxo-17-pentafluoroethyl-2,3,6,7,8,11,12,13,14,15,16,17-dodecahydro-1H-cyclopenta[a]phenanthren-1′-yl)phenyl]prop-2-ynyl ester], the IC50 in test [1] is 0.09 nM; in test [2], 0.08 nM.

`CC(C)NC(=O)OCC#Cc1ccc([C@H]2C[C@@]3(C)C(CC[C@@]3(O)C(F)(F)C(F)(F)F)C3CCC4=CC(=O)CCC4=C32)cc1` (stereo partly drawn) [Example 49, isopropylcarbamic acid 3-[4-((8S,11R,13S,14S,17S)-17-hydroxy-13-methyl-3-oxo-17-pentafluoroethyl-2,3,6,7,8,11,12,13,14,15,16,17-dodecahydro-1H-cyclopenta[a]phenanthren-1′-yl)phenyl]prop-2-ynyl ester]: the IC50 turned out to be 0.01 nM in test [1] and 0.07 nM in test [2].

As a reminder, the IC50 is the midpoint of a concentration-inhibition curve.

Source of the values: patent US9102701B2, “17-hydroxy-17-pentafluoroethyl-estra-4,9(10)-diene-11-ethynylphenyl derivatives, methods for the production thereof and use thereof for treating diseases” (Bayer Intellectual Property GmbH, priority 2009, dated 2015).
